The results in this text go back to ChEMBL document CHEMBL5252589, “Bioactive Piperazic Acid-Bearing Cyclodepsipeptides, Lydiamycins E-H, from an Endophytic Streptomyces sp. Associated with Cinnamomum cassia” (J Nat Prod, 2023).

Values after ≈ are worked out from the molar mass of the structure shown. Active and inactive are the calls of the source. No cut-off for these calls is given here.

Test [1] deals with PANC-1. Nature of the test: Cytotoxicity against human PANC-1 cells assessed as inhibition of cell growth incubated for 72 hrs by MTT assay. It counts as functional, cell-based. Conditions: PANC-1, 72 h.
The subject of test [2] is Mycobacterium tuberculosis. In words: Antibacterial activity against Mycobacterium tuberculosis H37Rv ATCC 27294 assessed as inhibition of bacterial growth. The class given is functional.
Test [3] concerns PANC-1. In words: Antimetastatic activity in human PANC-1 cells assessed as suppression of cell migration incubated for 24 to 48 hrs by inverted microscope based scratch wound healing assay. It counts as functional. The settings on record: dose 40-80 µM, time 24-48 hrs.
Test [4] has as its system PANC-1. Nature of the test: Antimetastatic activity in human PANC-1 cells assessed as suppression of cell invasion at 40 to 80 uM incubated for 24 hrs by crystal violet staining based transwell assay. The settings on record: dose 40-80 µM. It counts as functional.
The subject of test [5] is PANC-1. Nature of the test: Antimetastatic activity in human PANC-1 cells assessed as inhibition of cell migration at 80 uM incubated for 24 hrs by inverted microscope based scratch wound healing assay relative to control. The class given is functional.
Test [6] deals with PANC-1. Nature of the test: Antimetastatic activity in human PANC-1 cells assessed as inhibition of cell migration at 80 uM incubated for 48 hrs by inverted microscope based scratch wound healing assay relative to control. It counts as functional.
For test [7], the system named is Mycobacterium tuberculosis. Nature of the test: Antibacterial activity against Mycobacterium tuberculosis mc2 6230. The class given is functional.
Test [8] concerns Mycobacterium tuberculosis. Nature of the test: Antibacterial activity against Mycobacterium tuberculosis H37Rv. The class given is functional.
The test system of test [9] is PANC-1. In words: Antimetastatic activity in human PANC-1 cells assessed as inhibition of cell migration at 40 uM incubated for 24 hrs by inverted microscope based scratch wound healing assay relative to control. It counts as functional.
Test [10] has as its system PANC-1. Nature of the test: Antimetastatic activity in human PANC-1 cells assessed as inhibition of cell migration at 40 uM incubated for 48 hrs by inverted microscope based scratch wound healing assay relative to control. It counts as functional.

As for `CCCC[C@H](CC(=O)N1N=CCC[C@H]1C(=O)N[C@H]1COC(=O)[C@@H]2CCCNN2C(=O)[C@H](C)NC(=O)[C@@H](CC(C)C)NC1=O)C(=O)O`, the IC50 in the test on PANC-1 [1] was above 100 µM. The MIC in [2] was above 20 µg/mL. For the same molecule, the Activity entry in the test on PANC-1 [3] is “Dose-Dependent Effect”. Besides, the outcome in the test with PANC-1 [4] was Active.

On to `CC(C)C[C@H]1NC(=O)[C@@H](NC(=O)[C@@H]2CCC=NN2)COC(=O)[C@@H]2CCCNN2C(=O)[C@H](C)NC1=O`, for which the IC50 in the test with PANC-1 [1] was above 100 µM. Moreover, the MIC in test [2] is above 20 µg/mL. Further, the Activity result with PANC-1 [3] was “Dose-Dependent Effect”. For the same molecule, the outcome in the test with PANC-1 [4] was Active.

As for `CCCCC[C@H](CC(=O)N1N=CCC[C@H]1C(=O)N[C@H]1COC(=O)[C@@H]2CCCNN2C(=O)[C@H](C)NC(=O)[C@@H](CC(C)C)NC1=O)C(=O)O`, the values for the inhibition at 80 µM in the test on PANC-1 [5] and in the test on PANC-1 [6] were 45% and 49%, respectively. The values for the MIC50 in test [7] and in test [8] were 31 µg/mL (≈ 46.7 µM) and 12.5 µg/mL (≈ 18.8 µM), respectively. Also, in the test on PANC-1 [1], the half-inhibitory concentration (IC50) was above 100 µM. The minimal inhibitory concentration (MIC) in [2] was above 20 µg/mL. Further, the inhibition at 40 µM in the test on PANC-1 [9] was determined as 36%; in the test on PANC-1 [10] it was 11%. Also, the result with PANC-1 [4] was Active.

For `CCCCC[C@H](CC(=O)N1N=C[C@H](O)C[C@H]1C(=O)N[C@H]1COC(=O)[C@@H]2CCCNN2C(=O)[C@H](C)NC(=O)[C@@H](CC(C)C)NC1=O)C(=O)O`, the inhibition at 80 µM in the test with PANC-1 [5] came to 19%; in the test with PANC-1 [6], 26%. The IC50 in the test on PANC-1 [1] was above 100 µM. Moreover, the MIC in test [2] is above 20 µg/mL. For the same molecule, the inhibition at 40 µM with PANC-1 [9] and in the test with PANC-1 [10] was 11% each time. Also, the outcome with PANC-1 [4] was Active.

In the case of `CC(C)C[C@H]1NC(=O)[C@@H](NC(=O)[C@@H]2CCC=NN2C(=O)CCC(=O)O)COC(=O)[C@@H]2CCCNN2C(=O)[C@H](C)NC1=O`, the IC50 in the test with PANC-1 [1] is above 100 µM. In addition, the MIC in test [2] was above 20 µg/mL. In addition, the Activity entry in the test on PANC-1 [3] was “Dose-Dependent Effect”. For the same molecule, the outcome in the test with PANC-1 [4] was Active.

What is called IC50 is the concentration needed to halve the response being measured. By MIC is commonly meant the lowest concentration that inhibits growth of the organism. A word on the inhibition: it is the relative decrease from the control value, in per cent. As a reminder, the MIC50 is the lowest concentration that inhibits either 50% of growth or 50% of the strains tested, depending on the study. Lower therefore signals greater potency.
